Measured values from patent publication US20240316038A1, “APOL1 INHIBITORS AND METHODS OF USE” (Maze Therapeutics, Inc., priority 2021, published 2024).

Experiments:
APOL1 G2 [1] = biological target: T1, APOL1 G2 (Homo sapiens, UniProt O14791, DEL388-389); test: APOL1 calcium transport inhibition assay (GCaMP6f calcium influx, FLIPR) in HEK T-REx/GCaMP6f/APOL1 G2 K6.3 cells; assay type: cell-based; conditions: inhibition of APOL1-mediated calcium influx; geometric mean of at least 2 assay runs, † = single assay run (technical duplicate)
T1 construct: expressed in transfected cells; host or cells: HEK293 T-REx clonal lines: HEK T-REx/GCaMP6f/APOL1 G2 K6.3 in A1, HEK293/T-REx APOL1 G2/clone #2 in A2
T1 sequence (O14791 with tags, fused parts or gaps DEL388-389): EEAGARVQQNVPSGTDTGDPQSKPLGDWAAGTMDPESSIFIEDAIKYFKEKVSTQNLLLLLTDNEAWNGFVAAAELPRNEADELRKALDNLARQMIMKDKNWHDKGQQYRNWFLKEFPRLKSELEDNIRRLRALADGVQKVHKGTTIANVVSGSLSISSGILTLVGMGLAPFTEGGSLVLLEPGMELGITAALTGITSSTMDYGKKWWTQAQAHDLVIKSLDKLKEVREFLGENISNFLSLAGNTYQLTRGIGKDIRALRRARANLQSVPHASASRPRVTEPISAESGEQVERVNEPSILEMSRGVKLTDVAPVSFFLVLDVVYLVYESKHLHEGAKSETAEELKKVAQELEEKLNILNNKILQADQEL
How it was run: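 HEK293 cells stably expressing GCaMP6f, APOL1 G2 induced 6 h with doxycycline (20 ng/mL added), then washed into Ca2+-free Tyrode's buffer pH 7.4. Compounds (8-point dose response) preincubated 10 min at room temperature, then Ca2+ injected to 5 mM final and influx read on FLIPR. AC50 reported as geometric mean of runs.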

APOL1 G2 [2] = biological target: T1, APOL1 G2; test: Rescue of HEK293 cell death caused by overexpression of APOL1 (CellTiter-Glo luminescence), HEK293/T-REx APOL1 G2/clone #2; assay type: cell-based; conditions: reversal of cell death caused by overexpression of APOL1; geometric mean of at least 2 assay runs, † = single assay run (technical duplicate)
How it was run: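 Rescue EC50s come from four-parameter logistic fits, geometric mean of at least 2 runs on separate days, each in duplicate. Readout: CellTiter-Glo luminescence after 17 h at 37 °C of 5,000 HEK293/T-REx APOL1 G2 clone #2 cells/well, with 6 ng/mL doxycycline to induce APOL1 and 3-fold serial compound dilutions in 0.5% DMSO.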

AC50 (APOL1 G2 [1]) | SMILES | EC50 (APOL1 G2 [2])
0.236 µM | C[C@@H]1CN(CCc2cc(F)cc(C#N)c2)C[C@H]1COc1ccc(S(C)(=O)=O)cc1 [Compound 195, 3-fluoro-5-{2-[(3S,4S)-3-[(4-methanesulfonylphenoxy)methyl]-4-methylpyrrolidin-1-yl]ethyl}benzonitrile] | 0.226 µM
0.34 µM | C[C@@]1(O)CN(CCc2cccc(Cl)c2)C[C@H]1COc1ccc(S(C)(=O)=O)cc1 (single isomer, unassigned) [Compound 207, (3S,4S or 3R,4R)-1-[2-(3-chlorophenyl)ethyl]-4-[(4-methanesulfonylphenoxy)methyl]-3-methylpyrrolidin-3-ol] | 0.933 µM
0.461 µM | C[C@@H]1CN(CC(O)c2cc(Cl)cc(C#N)c2)C[C@H]1COc1ccc(S(C)(=O)=O)cc1 (stereo partly shown) [Compound 120] | 0.195 µM
0.456 µM | CC1CC(COc2ccc(S(C)(=O)=O)cc2)CN1CCc1cc(Cl)cc(C#N)c1 (single isomer, unassigned) [Compound 204, 3-chloro-5-(2-((2R,4S or 2S,4R or 2S,4S or 2R.4R)-2-methyl-4-((4-(methylsulfonyl)phenoxy)methyl)pyrrolidin-1-yl)ethyl)benzonitrile] | 0.0423 µM
0.352 µM | CN(c1ccc(OC[C@H](O)CNCCc2cccc(Cl)c2)cc1)S(C)(=O)=O [Compound 87, (R)-N-(4-(3-((3-chlorophenethyl)a-mino)-2-hydroxypropoxy)phe-nyl)-N-methylmethanesulfon-amide] | 1.85 µM
0.207 µM | CC1CC(COc2ccc(S(C)(=O)=O)cc2)CN1CCc1cccc(C#N)c1 (single isomer, unassigned) [Compound 136, rac-trans or cis-3-{2-[4-[(4-methanesulfon-ylphenoxy)meth-yl]-2-methyl-pyrrolidin-1-yl]-ethyl}benzo-nitrile] | 0.11 µM
0.847 µM | CN(c1ccc(OC[C@H]2CCN(CCc3cccc(Cl)c3)C2)cc1)S(C)(=O)=O [Compound 49, (S)-N-(4-((1-(3-chlorophenethyl)pyrrolidin-3-yl)methoxy)phenyl)-N-methylmethanesulfonamide] | 0.957 µM
0.737 µM | Cc1c(C#N)cc(Cl)cc1CCN1C[C@@H](COc2ccc(S(C)(=O)=O)cc2)C[C@H]1C [Compound 141, 5-chloro-3-{2-[(2R,4S)-4-[(4-methanesulfon-ylphenoxy)meth-yl]-2-methyl-pyrrolidin-1-yl]-ethyl}-2-methyl-benzonitrile] | 0.0789 µM
0.228 µM | COc1ccc(Cl)cc1CCN1CCN[C@H](COc2ccc(S(C)(=O)=O)cc2)C1 [Compound 191, (3S)-1-[2-(5-chloro-2-methoxyphenyl)ethyl]-3-[(4-methanesulfonylphenoxy)methyl]piperazine] | 0.663 µM
0.334 µM | Cc1ccc(Cl)cc1CCN1CCN[C@H](COc2ccc(S(C)(=O)=O)cc2)C1 [Compound 197, (3S)-1-[2-(5-chloro-2-methylphenyl)ethyl]-3-[(4-methanesulfonylphenoxy)methyl]piperazine] | 0.369 µM
0.878 µM | C[C@@H]1C[C@H](COc2ccc(S(=O)(=O)C3CNC3)cc2)CN1CCc1cc(Cl)cc(C#N)c1 [Compound 161, 3-{2-[(2R,4S)-4-{[4-(azetidine-3-sulfonyl)phenoxy]methyl}-2-methylpyrrolidin-1-yl]ethyl}-5-chlorobenzonitrile] | 0.191 µM
0.314 µM | CN(c1ccc(OC[C@H](O)CN2CCC(c3cccc(Cl)c3)C2(C)C)cc1)S(C)(=O)=O (single isomer, unassigned) [Compound 72, N-(4-((R)-3-((S) or (R)-3-(3-chlorophenyl)-2,2-dimethylpyrrolidin-1-yl)-2-hydroxypropoxy)phe-nyl)-N-methylmethanesulfon-amide] | 1.22 µM
0.836 µM | CC1CC(COc2ccc(S(C)(=O)=O)cc2)CN1CCc1cc(Cl)cc(C#N)c1 (single isomer, unassigned) [Compound 200, 3-chloro-5-(2-((2S,4R or 2R,4S or 2R,4R or 2S,4S)-2-methyl-4-((4-(methylsulfonyl)phenoxy)methyl)pyrrolidin-1-yl)ethyl)benzonitrile] | 1.99 µM
1.29 µM | CC1CC(COc2ccc(S(C)(=O)=O)cc2)CN1CCc1cccc(Cl)c1 (single isomer, unassigned) [Compound 55, (2R,4S) or (2R,4R) or (2S,4R) or (2S,4S)-1-(3-chlorophenethyl)-2-methyl-4-((4-(methylsulfonyl)phenoxy)methyl)pyrrolidine] | 1.68 µM
3.84 µM | COC1CCN(CCc2cccc(Cl)c2)CC1COc1ccc(S(C)(=O)=O)cc1 (single isomer, unassigned) [Compound 37, (3R,4R) or (3S,4S) or (3R,4S) or (3S,4R)-1-(3-chlorophenethyl)-4-methoxy-3-((4-(methylsulfonyl)phenoxy)methyl) piperidine] | > 6.15 µM
0.212 µM | CN=S(C)(=O)c1ccc(OC[C@@H]2CN(CCc3cccc(C#N)c3)C[C@H]2C)cc1 (single isomer, unassigned) [Compound 171, 3-{2-[(3S,4S)-3-methyl-4-({4-[(S or R)-methyl(methylimi-no)oxo-λ^6-sulfanyl]phenoxy}methyl)pyrrolidin-1-yl]ethyl}benzonitrile] | 0.146 µM
< 0.118 µM | CC1CNC(COc2ccc(S(C)(=O)=O)cc2)CN1CCc1cccc(Cl)c1 (stereo not shown) [Compound 211, 1-[2-(3-chlorophenyl)ethyl]-5-[(4-methanesulfonylphenoxy)methyl]-2-methylpiperazine] | 1.36 µM
1.3 µM | CN(c1ccc(OC[C@@H](O)CNCCc2ccccc2OC(F)F)cc1)S(C)(=O)=O [Compound 101, (S)-N-(4-(3-((2-(difluoromethoxy)phenethyl)amino)-2-hydroxypropoxy)phe-nyl)-N-methylmethanesulfon-amide] | 10.1 µM
0.0375 µM | CN=S(C)(=O)c1ccc(OC[C@@H]2CN(CCc3cccc(C#N)c3)C[C@H]2C)cc1 (single isomer, unassigned) [Compound 170, 3-{2-[(3S,4S)-3-methyl-4-({4-[(R or S)-methyl(methylimi-no)oxo-λ^6-sulfanyl]phenoxy}methyl)pyrrolidin-1-yl]ethyl}benzonitrile] | 0.076 µM
1.98 µM | C[C@@H]1CN(CCc2cccc(Cl)c2)C[C@H]1COc1ccc(S(C)(=O)=O)cc1 (single isomer, unassigned) [Compound 155, (35,4S or 3R, 4R)-1-[2-(3-chlorophenyl)-ethyl]-3-[(4-methanesulfon-ylphenoxy)meth-yl]-4-methyl-pyrrolidine] | 2.49 µM
0.349 µM | C[C@@H]1CN(CC(O)c2cccc(C#N)c2)C[C@H]1COc1ccc(S(C)(=O)=O)cc1 (single isomer, unassigned) [Compound 128, 3-[(1R or 1S)-1-hydroxy-2-[(35,4S)-3-[(4-methanesulfonylphenoxy)methyl]-4-methylpyrrolidin-1-ylethyl]benzonitrile] | 0.366 µM
1.72 µM | CN(c1ccc(OCC2CN(CCc3cccc(Cl)c3)CCCO2)cc1)S(C)(=O)=O (stereo not shown) [Compound 10, N-(4-((4-(3-chlorophenethyl)-1,4-oxazepan-2-yl)methoxy)phenyl)-N-methylmethane-sulfonamide] | 2.45 µM
2.83 µM | CN(c1ccc(OC[C@@H](O)CN2CCC(c3cccc(Cl)c3)C2)cc1)S(C)(=O)=O (single isomer, unassigned) [Compound 76, N-(4-((S)-3-((R) or (S)-3-(3-chlorophenyl)pyrro-lidin-1-yl)-2-hydroxypropoxy)phe-nyl)-N-methylmethanesulfon-amide] | > 6.28 µM
0.198 µM | CN=S(C)(=O)c1ccc(OC[C@@H]2CN(CCc3cc(Cl)cc(C#N)c3)CCN2)cc1 (single isomer, unassigned) [Compound 187, 3-chloro-5-{2-[(3S)-3-({4-[(S or R)-methyl(methyl-imino)oxo-λ^6-sulfanyl]pheno-xy}methyl)pipera-zin-1-yl]ethyl}benzo-nitrile] | 0.436 µM
> 25 µM | CN(c1ccc(OC[C@H](O)CN2CCOC(c3cccc(Cl)c3)C2)cc1)S(C)(=O)=O (stereo partly drawn) [Compound 83, N-(4-((2R)-3-(2-(3-chlorophenyl)morpho-lino)-2-hydroxypropoxy)phe-nyl)-N-methylmethanesulfon-amide] | > 30 µM
1.67 µM | CN(c1ccc(OC[C@H](O)CN2CCC(c3cccc(Cl)c3)C2)cc1)S(C)(=O)=O (stereo partly drawn) [Compound 77, N-(4-((2R)-3-(3-(3-chlorophenyl)pyrro-lidin-1-yl)-2-hydroxypropoxy)phe-nyl)-N-methylmethanesulfon-amide] | > 6.3 µM
